Experiments:
Type in all cases: in vivo
[1] = tested on: ragweed (common ragweed, Ambrosia elatior); test: Test A postemergence
Description: (§1) Seeds of plant species selected from barnyardgrass (Echinochloa crus-galli), Kochia (Kochia scoparia), ragweed (common ragweed, Ambrosia elatior), ryegrass, Italian (Italian ryegrass, Lolium multiflorum), crabgrass, large (Digitaria sanguinalis), giant foxtail (Setaria faberii), green foxtail (Setaria viridis), morningglory (Ipomoea spp.), pigweed (Amaranthus retroflexus), velvetleaf (Abutilon theophrasti), wheat (Triticum aestivum), and corn (Zea mays) were planted into a blend of loam soil and sand and treated preemergence with a directed soil spray using test chemicals formulated in anon-phytotoxic solvent mixture which included a surfactant.
(§2) At the same time, plants selected from these crop and weed species and also blackgrass (Alopecurus myosuroides), and Galium (catchweed bedstraw, Galium aparine) were planted in pots containing the same blend of loam soil and sand and treated with postemergence applications of test chemicals formulated in the same manner. Plants ranged in height from 2 to 10 cm and were in the one- to two-leaf stage for the postemergence treatment. Treated plants and untreated controls were maintained in a greenhouse for approximately 10 d, after which time all treated plants were compared to untreated controls and visually evaluated for injury. Plant response ratings, summarized in Table A, are based on a 0 to 100 scale where 0 is no effect and 100 is complete control. A dash (-) response means no test result.

[2] = tested on: Galium (catchweed bedstraw, Galium aparine); test: Test A postemergence
Description: as §1, §2

[3] = tested on: wheat (Triticum aestivum); test: Test A postemergence
Description: as §1, §2

[4] = tested on: barnyardgrass (Echinochloa crus-galli); test: Test A postemergence
Description: as §1, §2

corn (Zea mays) = test: Test A postemergence
Description: as §1, §2

[5] = tested on: ryegrass, Italian (Italian ryegrass, Lolium multiflorum); test: Test A postemergence
Description: as §1, §2

[6] = tested on: giant foxtail (Setaria faberii); test: Test A postemergence
Description: as §1, §2

Kochia (Kochia scoparia) [7] = test: Test A postemergence
Description: as §1, §2

[8] = tested on: blackgrass (Alopecurus myosuroides); test: Test A postemergence
Description: as §1, §2

[9] = tested on: pigweed (Amaranthus retroflexus); test: Test A postemergence
Description: as §1, §2

[10] = tested on: ragweed (common ragweed, Ambrosia elatior); test: Test A preemergence; conditions: Preemergence; for Plant response rating, Ragweed: 125 g ai/ha, visual injury after approximately 10 d, 0 to 100 scale where 0 is no effect and 100 is complete control; for Ragweed plant response rating (0 to 100 scale, 0 is no effect, 100 is complete control): 500 g ai/ha, visual injury approx. 10 d
Description: as §1, §2

[11] = tested on: barnyardgrass (Echinochloa crus-galli); test: Test A preemergence; conditions: Preemergence; for Plant response rating, Barnyardgrass: 125 g ai/ha, visual injury after approximately 10 d, 0 to 100 scale where 0 is no effect and 100 is complete control; for Barnyardgrass plant response rating (0 to 100 scale, 0 is no effect, 100 is complete control): 500 g ai/ha, visual injury approx. 10 d
Description: as §1, §2

[12] = tested on: ryegrass, Italian (Italian ryegrass, Lolium multiflorum); test: Test A preemergence; conditions: Preemergence; for Plant response rating, Ryegrass, Italian: 125 g ai/ha, visual injury after approximately 10 d, 0 to 100 scale where 0 is no effect and 100 is complete control; for Ryegrass, Italian plant response rating (0 to 100 scale, 0 is no effect, 100 is complete control): 500 g ai/ha, visual injury approx. 10 d
Description: as §1, §2

[13] = tested on: giant foxtail (Setaria faberii); test: Test A preemergence; conditions: Preemergence; for Plant response rating, Foxtail, Giant: 125 g ai/ha, visual injury after approximately 10 d, 0 to 100 scale where 0 is no effect and 100 is complete control; for Foxtail, Giant plant response rating (0 to 100 scale, 0 is no effect, 100 is complete control): 500 g ai/ha, visual injury approx. 10 d
Description: as §1, §2

Kochia (Kochia scoparia) [14] = test: Test A preemergence; conditions: Preemergence; for Plant response rating, Kochia: 125 g ai/ha, visual injury after approximately 10 d, 0 to 100 scale where 0 is no effect and 100 is complete control; for Kochia plant response rating (0 to 100 scale, 0 is no effect, 100 is complete control): 500 g ai/ha, visual injury approx. 10 d
Description: as §1, §2

[15] = tested on: pigweed (Amaranthus retroflexus); test: Test A preemergence; conditions: Preemergence; for Plant response rating, Pigweed: 125 g ai/ha, visual injury after approximately 10 d, 0 to 100 scale where 0 is no effect and 100 is complete control; for Pigweed plant response rating (0 to 100 scale, 0 is no effect, 100 is complete control): 500 g ai/ha, visual injury approx. 10 d
Description: as §1, §2

[16] = 125 g ai/ha, postemergence, visual rating after approx. 10 d, 0 to 100 scale (0 no effect, 100 complete control)
[17] = Postemergence, 500 g ai/ha, 0 to 100 scale where 0 is no effect and 100 is complete control

SMILES	Plant response rating, Ragweed [1, 16]	Plant response rating, Ragweed [1, 17]	Plant response rating, Galium [2, 16]	Plant response rating, Galium [2, 17]	Plant response rating, Wheat [3, 16]	Plant response rating, Wheat [3, 17]	Plant response rating, Barnyardgrass [4, 16]	Plant response rating, Barnyardgrass [4, 17]	Plant response rating, Corn (corn (Zea mays); [16])	Plant response rating, Corn (corn (Zea mays); [17])	Plant response rating, Ryegrass, Italian [5, 16]	Plant response rating, Ryegrass, Italian [5, 17]	Plant response rating, Foxtail, Giant [6, 16]	Plant response rating, Foxtail, Giant [6, 17]	Plant response rating, Kochia (Kochia (Kochia scoparia) [7]; [16])	Plant response rating, Kochia (Kochia (Kochia scoparia) [7]; [17])	Plant response rating, Blackgrass [8, 16]	Plant response rating, Blackgrass [8, 17]	Plant response rating, Pigweed [9, 16]	Plant response rating, Pigweed [9, 17]	other results
CN1CC(c2cccc(C(F)(F)F)c2)C(C(=O)Nc2ccc(F)cc2F)C1=O (stereo not shown) [Compound 571]	0	0	50	70	60	70	90	100	60	80	60	60	90	90	30	60	70	80	20	30	Plant response rating, Ragweed [10]: 0; Ragweed plant response rating (0 to 100 scale, 0 is no effect, 100 is complete control) [10]: 0; Plant response rating, Barnyardgrass [11]: 90; Barnyardgrass plant response rating (0 to 100 scale, 0 is no effect, 100 is complete control) [11]: 90; Plant response rating, Ryegrass, Italian [12]: 60; Ryegrass, Italian plant response rating (0 to 100 scale, 0 is no effect, 100 is complete control) [12]: 80; Plant response rating, Foxtail, Giant [13]: 90; Foxtail, Giant plant response rating (0 to 100 scale, 0 is no effect, 100 is complete control) [13]: 100; Plant response rating, Kochia (Kochia (Kochia scoparia) [14]): 60; Kochia plant response rating (0 to 100 scale, 0 is no effect, 100 is complete control) (Kochia (Kochia scoparia) [14]): 80; Plant response rating, Pigweed [15]: 30; Pigweed plant response rating (0 to 100 scale, 0 is no effect, 100 is complete control) [15]: 80
CN1CC(c2cccc(C(F)(F)F)c2)C(C(=O)Nc2ccccc2[N+](=O)[O-])C1=O (stereo not shown) [Compound 572]	0	20	50	60	60	70	90	90	60	80	30	60	90	90	20	60	70	80	30	40	Plant response rating, Ragweed [10]: 0; Ragweed plant response rating (0 to 100 scale, 0 is no effect, 100 is complete control) [10]: 50; Plant response rating, Barnyardgrass [11]: 90; Barnyardgrass plant response rating (0 to 100 scale, 0 is no effect, 100 is complete control) [11]: 90; Plant response rating, Ryegrass, Italian [12]: 50; Ryegrass, Italian plant response rating (0 to 100 scale, 0 is no effect, 100 is complete control) [12]: 50; Plant response rating, Foxtail, Giant [13]: 90; Foxtail, Giant plant response rating (0 to 100 scale, 0 is no effect, 100 is complete control) [13]: 90; Plant response rating, Kochia (Kochia (Kochia scoparia) [14]): 70; Kochia plant response rating (0 to 100 scale, 0 is no effect, 100 is complete control) (Kochia (Kochia scoparia) [14]): 80; Plant response rating, Pigweed [15]: 40; Pigweed plant response rating (0 to 100 scale, 0 is no effect, 100 is complete control) [15]: 80

Source: patent US12077503B2, “Substituted cyclic amides and their use as herbicides” (FMC CORPORATION, priority 2015, dated 2024)
